Test results from patent publication US11738063B2, “Pharmaceutical composition for preventing or treating neurodegenerative diseases which includes flower extract of Daphne genkwa or fractions thereof as active ingredient” (KOREA RESEARCH INSTITUTE OF BIOSCIENCE AND BIOTECHNOLOGY, priority 2016, dated 2023).
Values joined by “and” are separate entries in the source; they are usually repeats but may differ in a detail not shown here. Identical values can stand only once.

Columns and labels:
[1] = system: Salmonella typhimurium TA1535; assay: Bacterial reverse mutation assay, TA1535; conditions: TA1535, S9+, 3.0 μg/plate, positive control
[2] = system: Escherichia coli WP2uvrA (pKM101); assay: Bacterial reverse mutation assay, WP2uvrA (pKM101); conditions: S9+, 2.0 μg/plate, positive control
[3] = system: Salmonella typhimurium TA1537; assay: Bacterial reverse mutation assay, TA1537; conditions: TA1537, S9+, 3.0 μg/plate, positive control
[4] = system: Salmonella typhimurium TA100; assay: Bacterial reverse mutation assay, TA100; conditions: TA100, S9+, 2.0 μg/plate, positive control
[5] = system: Salmonella typhimurium TA98; assay: Bacterial reverse mutation assay, TA98; conditions: TA98, S9+, 1.0 μg/plate, positive control

Nc1ccc2cc3ccccc3cc2c1 [2-Aminoanthracene (2-AA), 2-Aminoanthracene]
Mean revertant colony count [1]: 101
Mean revertant colony count [2]: 462 and 545
Mean revertant colony count [3]: 129 and 220
Mean revertant colony count [4]: 592 and 838
Mean revertant colony count [5]: 362 and 440
